Experimental data as given in ChEMBL document CHEMBL1155874, “Carbonic anhydrase activators: Activation of the human cytosolic isozyme III and membrane-associated isoform IV with amino acids and amines” (Bioorg Med Chem Lett, 2008).

Legend:
[1] = target: Carbonic anhydrase 1 (Homo sapiens) (UniProt P00915); test: Activation of human recombinant CA1 at 10 uM by stopped-flow CO2 hydration method
[2] = target: Carbonic anhydrase 2 (Homo sapiens) (UniProt P00918); test: Activation of human recombinant CA2 at 10 uM by stopped-flow CO2 hydration method
[3] = target: Carbonic anhydrase 3 (Homo sapiens) (UniProt P07451); test: Activation of human recombinant CA3 at 10 uM by stopped-flow CO2 hydration method
Chain of Carbonic anhydrase 3 (Homo sapiens) (P07451 whole entry, the tested form may be a part): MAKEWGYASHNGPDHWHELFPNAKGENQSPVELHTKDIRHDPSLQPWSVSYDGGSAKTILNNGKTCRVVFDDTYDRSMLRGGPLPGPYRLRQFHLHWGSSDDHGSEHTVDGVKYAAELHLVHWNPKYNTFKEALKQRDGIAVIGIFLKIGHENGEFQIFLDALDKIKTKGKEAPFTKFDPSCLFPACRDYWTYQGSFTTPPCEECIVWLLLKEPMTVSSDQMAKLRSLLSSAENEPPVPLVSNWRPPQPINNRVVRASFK

[4] = target: Carbonic anhydrase 4 (Homo sapiens) (UniProt P22748); test: Activation of human recombinant truncated CA4 at 10 uM by stopped-flow CO2 hydration method
Chain of Carbonic anhydrase 4 (Homo sapiens) (P22748 whole entry, the tested form may be a part): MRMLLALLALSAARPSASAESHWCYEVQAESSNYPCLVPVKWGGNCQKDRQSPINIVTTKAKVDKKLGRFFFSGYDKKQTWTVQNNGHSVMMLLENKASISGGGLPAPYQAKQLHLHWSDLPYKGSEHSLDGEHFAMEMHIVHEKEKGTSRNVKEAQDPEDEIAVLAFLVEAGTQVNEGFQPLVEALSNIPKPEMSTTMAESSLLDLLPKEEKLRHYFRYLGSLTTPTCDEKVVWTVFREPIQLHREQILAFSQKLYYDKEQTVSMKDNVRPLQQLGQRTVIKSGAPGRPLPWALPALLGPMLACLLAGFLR

[5] = tested on: N[C@@H](Cc1c[nH]cn1)C(=O)O; test: (§1) Activity of human recombinant CA1 at 10 uM by stopped-flow CO2 hydration method
[6] = tested on: N[C@H](Cc1c[nH]cn1)C(=O)O; test: as §1
[7] = tested on: N[C@@H](Cc1c[nH]cn1)C(=O)O; test: (§2) Activity of human recombinant CA2 at 10 uM stopped-flow CO2 hydration method
[8] = tested on: N[C@H](Cc1c[nH]cn1)C(=O)O; test: as §2

Chain of Carbonic anhydrase 1 (Homo sapiens), P00915 (P00915 whole entry): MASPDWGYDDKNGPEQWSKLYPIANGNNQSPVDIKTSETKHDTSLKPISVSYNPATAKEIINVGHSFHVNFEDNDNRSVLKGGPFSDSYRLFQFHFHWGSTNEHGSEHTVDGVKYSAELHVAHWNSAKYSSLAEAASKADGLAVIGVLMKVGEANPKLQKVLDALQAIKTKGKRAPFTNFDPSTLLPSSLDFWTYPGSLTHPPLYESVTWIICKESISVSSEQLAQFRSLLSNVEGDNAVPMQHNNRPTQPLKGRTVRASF
Chain of Carbonic anhydrase 1 (Homo sapiens) (P00915 2-261 limits assumed): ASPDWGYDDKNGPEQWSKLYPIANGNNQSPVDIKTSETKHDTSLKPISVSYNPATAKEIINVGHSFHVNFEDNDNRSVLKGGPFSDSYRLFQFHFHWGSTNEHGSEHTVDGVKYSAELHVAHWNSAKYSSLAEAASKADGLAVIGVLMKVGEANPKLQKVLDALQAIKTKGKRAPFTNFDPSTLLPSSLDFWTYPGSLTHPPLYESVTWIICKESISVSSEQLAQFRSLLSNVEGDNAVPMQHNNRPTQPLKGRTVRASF

`CNCC(O)c1ccc(O)c(O)c1` (single isomer, unassigned) was tested, and the Ka [1] was 0.09 µM, the Ka [2] was 96 µM and the Ka [3] was 36.4 µM. For the same compound, the Ka [4] was 45 µM.
With `NCCc1ccccn1` the Ka [3] was 1.1 µM and the Ka [4] was 7.13 µM.
For `NCCN1CCNCC1`, the Ka [3] was 0.32 µM and the Ka [4] was 24.9 µM.
`N[C@@H](Cc1ccc(O)cc1)C(=O)O` showed a Ka [3] of 34.1 µM and a Ka [4] of 25.1 µM.
`NCCN1CCOCC1` gave a Ka [3] of 0.091 µM and a Ka [4] of 1.3 µM.
“Carbonic anhydrase 1 (Homo sapiens), P00915” showed a kcat [5] of 13.4 ×10⁵ /s and a kcat [6] of 9.1 ×10⁵ /s.
Work on `N[C@H](Cc1ccc(O)c(O)c1)C(=O)O` yielded a Ka [3] of 28.7 µM and a Ka [4] of 34.7 µM.
For `N[C@H](Cc1c[nH]c2ccccc12)C(=O)O`, the Ka [3] was 19 µM and the Ka [4] was 39.6 µM.
For “Carbonic anhydrase 2 (Homo sapiens) (from UniProt P00918)”, the kcat [7] was 4.3 ×10⁶ /s and the kcat [8] was 2.7 ×10⁶ /s.
`Nc1ccc(C[C@H](N)C(=O)O)cc1` gave a Ka [3] of 43.2 µM and a Ka [4] of 0.079 µM.
For `N[C@H](Cc1c[nH]cn1)C(=O)O`, the Ka [3] was 1.12 µM and the Ka [4] was 12.3 µM.
For `NCc1ccccn1`, the Ka [3] was 1.03 µM and the Ka [4] was 5.19 µM.
In the case of `NCCc1c[nH]c2ccc(O)cc12`, the Ka [3] is reported as 0.78 µM and the Ka [4] is reported as 3.14 µM.
In the case of `N[C@@H](Cc1c[nH]c2ccccc12)C(=O)O`, the Ka [3] is reported as 20.5 µM and the Ka [4] is reported as 37.1 µM.
For `N[C@@H](Cc1ccc(O)c(O)c1)C(=O)O`, the Ka [3] was 13.5 µM and the Ka [4] was 15.3 µM.
Work on `N[C@@H](Cc1c[nH]cn1)C(=O)O` yielded a Ka [3] of 35.9 µM and a Ka [4] of 7.3 µM.
Work on `NCCc1ccc(O)c(O)c1` yielded a Ka [3] of 33.2 µM and a Ka [4] of 30.9 µM.
`NCCc1c[nH]cn1` showed a Ka [1] of 2.1 µM, a Ka [3] of 36.9 µM and a Ka [4] of 25.3 µM.
